Target: T1, ABCG2 (Homo sapiens, UniProt Q9UNQ0)
T1 sequence (Q9UNQ0 1-655): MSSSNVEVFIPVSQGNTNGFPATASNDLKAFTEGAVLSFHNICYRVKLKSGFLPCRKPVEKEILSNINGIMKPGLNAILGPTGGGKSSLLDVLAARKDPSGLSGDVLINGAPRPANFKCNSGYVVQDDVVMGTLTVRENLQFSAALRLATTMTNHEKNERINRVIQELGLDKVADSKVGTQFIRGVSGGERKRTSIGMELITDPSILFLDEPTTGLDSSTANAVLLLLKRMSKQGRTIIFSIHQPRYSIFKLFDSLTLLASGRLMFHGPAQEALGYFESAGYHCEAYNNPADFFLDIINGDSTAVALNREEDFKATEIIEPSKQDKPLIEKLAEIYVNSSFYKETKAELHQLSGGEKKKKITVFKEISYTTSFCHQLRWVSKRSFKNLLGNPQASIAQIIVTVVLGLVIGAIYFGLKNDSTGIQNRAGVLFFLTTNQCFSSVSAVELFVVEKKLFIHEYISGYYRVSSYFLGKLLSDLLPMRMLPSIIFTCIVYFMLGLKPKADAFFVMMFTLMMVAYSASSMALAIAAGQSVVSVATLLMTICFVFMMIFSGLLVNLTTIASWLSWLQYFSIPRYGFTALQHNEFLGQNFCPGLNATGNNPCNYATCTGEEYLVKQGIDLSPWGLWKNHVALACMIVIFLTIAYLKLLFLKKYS
Format: binding

- IC50: 2100 nM
SMILES: CCN(CC)CCN1C(=O)c2c(c3c4cccc(Cl)c4n([C@@H]4O[C@H](CO)[C@@H](OC)[C@H](O)[C@H]4O)c3c3[nH]c4c(Cl)cccc4c23)C1=O [becatecarin]

From paper PMC2693460 (Cancer chemotherapy and pharmacology, 2009)
